The results in this text go back to patent US6642217B2, “Triterpenes having human antifungal and antiyeast activity” (Naturtek, LLC, priority 2000, dated 2003).

Assay [1] concerns Microsporum canis. Nature of the assay: Direct addition method, solid compound in Sabouraud dextrose agar. On the set-up: key: +++: Maximum Fungal Growth; ++: Moderate Fungal Growth; +: Minimum Fungal Growth; +/−: Very Little Fungal Growth; −: No Fungal Growth. In kind it is cell-based. The conditions noted are these: 4 mg/mL of agar; 12th day after inoculation. As to the method:
Direct addition method. Sabouraud dextrose agar was prepared according to the manufacturer's instructions and 5.0 ml was dispensed in each 100×25 mm tube. The tubes were autoclaved. To each tube containing 5.0 ml of liquid agar at 45° C., 20 mg of solid test compound was added, to give a final concentration of 4 mg/ml. The agar was solidified in slants. The fungal cultures were then innoculated. The slants were incubated at 25-28 ° C. for 10-12 days, and the growth of the fungus was recorded every second day. The results in Table 2 indicate growth at the 12th day of inoculation.

Assay [2] has as its system Pityrosporum ovale. The experiment in a line: Direct addition into the Pityrosporum agar. Type of assay: cell-based. Further details: key to Pityrosporum ovale growth: +++: Maximum Growth; ++: Moderate Growth; +: Minimum Growth; +/−: Very Little Growth; −: No Growth. The conditions noted are these: 4 mg/ml in the agar; 18 hours after inoculation. As to the method: Direct addition method. Sabouraud dextrose agar was prepared according to the manufacturer's instructions and 5.0 ml was dispensed in each 100×25 mm tube. The tubes were autoclaved. To each tube containing 5.0 ml of liquid agar at 45° C., 20 mg of solid test compound was added, to give a final concentration of 4 mg/ml. The agar was solidified in slants. The fungal cultures were then innoculated. […]

The test system of assay [3] is Epidermophyton floccosum. Nature of the assay: Direct addition method, solid compound in Sabouraud dextrose agar. Type of assay: cell-based. Further details: key: +++: Maximum Fungal Growth; ++: Moderate Fungal Growth; +: Minimum Fungal Growth; +/−: Very little Fungal Growth; −: No Fungal Growth. The conditions noted are these: 4 mg/mL of agar; 12th day after inoculation. In outline:
(§1)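 Fungal growth read at day 12; scored every 2nd day over 10-12 days at 25-28° C. Compound added as solid to molten Sabouraud dextrose agar (45° C.), final 4 mg/ml; agar slanted, then inoculated.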

Assay [4] concerns Pityrosporum ovale. Described as above. Type of assay: cell-based. On the set-up: key: +++: Maximum Fungal Growth; ++: Moderate Fungal Growth; +: Minimum Fungal Growth; +/−: Very little Fungal Growth; −: No Fungal Growth. The settings on record: 4 mg/mL of agar; 12th day after inoculation. The procedure, abridged:
as §1

The subject of assay [5] is Trichophyton rubrum. The description is as above. Further details: key: +++: Maximum Fungal Growth; ++: Moderate Fungal Growth; +: Minimum Fungal Growth; +/−: Very little Fungal Growth; −: No Fungal Growth. The settings on record: 4 mg/mL of agar; 12th day after inoculation. Type of assay: cell-based. The procedure, abridged:
as §1

For assay [6], the system named is Microsporum canis. The description is as above. Type of assay: cell-based. The conditions noted are these: against Microsporum canis. The procedure, abridged:
as §1

Assay [7] has as its system Microsporum audouinni. The assay is described as above. On the set-up: key to Fungal growth: +++: Maximum Fungal Growth; ++: Moderate Fungal Growth; +: Minimum Fungal Growth; +/−: Very little Fungal Growth; −: No Fungal Growth. The conditions noted are these: 4 mg/mL of agar; 12th day after inoculation. Type of assay: cell-based, Microsporum audouinii. The procedure, abridged:
as §1

In the case of `C=C(C)[C@@H]1CC[C@]2(COC(=O)CN)CC[C@]3(C)[C@H](CC[C@@H]4[C@@]5(C)CC[C@H](OC(=O)CN)C(C)(C)[C@@H]5CC[C@]43C)[C@@H]12` [Betulin-3,28-diglycine], the Fungal growth entry in assay [1] is reported as “+/−”; in assay [3] it was “−”; in assay [4], “−”; in assay [5], “+”; in assay [7] it was “+”. Moreover, the Pityrosporum ovale growth result in assay [2] is on record as “+”. Further, the “best anti-fungal or anti-yeast activity by the direct addition method” value in assay [6] is on record as “against Microsporum canis”.
